{
  "source": "ChEMBL document CHEMBL5096151",
  "about": "“Phytocannabinoid Pharmacology: Medicinal Properties of Cannabis sativa Constituents Aside from the \"Big Two\"” (J Nat Prod, 2021)",
  "key": {"[1]": {"target": "T1, Transient receptor potential cation channel subfamily V member 4 (Homo sapiens, UniProt Q9HBA0)", "T1 sequence (Q9HBA0 whole entry)": "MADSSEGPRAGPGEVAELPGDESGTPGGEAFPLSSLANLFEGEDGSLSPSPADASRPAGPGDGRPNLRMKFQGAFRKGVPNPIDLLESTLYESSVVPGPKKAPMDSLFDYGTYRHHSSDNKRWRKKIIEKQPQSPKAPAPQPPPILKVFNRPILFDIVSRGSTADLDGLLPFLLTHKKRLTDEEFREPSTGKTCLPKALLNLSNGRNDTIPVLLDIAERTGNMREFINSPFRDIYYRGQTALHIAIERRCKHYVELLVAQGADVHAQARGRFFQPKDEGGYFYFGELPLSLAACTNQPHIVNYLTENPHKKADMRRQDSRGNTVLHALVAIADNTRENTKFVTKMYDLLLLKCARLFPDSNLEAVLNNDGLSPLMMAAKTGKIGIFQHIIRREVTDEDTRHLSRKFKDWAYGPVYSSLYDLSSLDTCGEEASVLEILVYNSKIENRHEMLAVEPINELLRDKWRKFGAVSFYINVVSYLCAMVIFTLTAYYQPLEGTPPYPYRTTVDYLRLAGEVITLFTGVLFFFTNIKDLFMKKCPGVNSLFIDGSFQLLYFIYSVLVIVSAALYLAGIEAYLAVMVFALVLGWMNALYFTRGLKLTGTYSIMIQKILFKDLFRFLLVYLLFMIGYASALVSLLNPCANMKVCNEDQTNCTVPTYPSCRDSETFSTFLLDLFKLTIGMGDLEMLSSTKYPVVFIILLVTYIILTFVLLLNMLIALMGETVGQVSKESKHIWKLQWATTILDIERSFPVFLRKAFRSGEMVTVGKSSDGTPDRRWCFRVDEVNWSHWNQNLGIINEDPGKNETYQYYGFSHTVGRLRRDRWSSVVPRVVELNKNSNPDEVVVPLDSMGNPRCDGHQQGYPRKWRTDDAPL", "test": "Agonist activity at ionomycin-stimulated TRPV4 (unknown origin) activation"}, "[2]": {"target": "Transient receptor potential cation channel subfamily M member 8 (Homo sapiens, UniProt Q7Z2W7)", "sequence (Q7Z2W7 whole entry)": "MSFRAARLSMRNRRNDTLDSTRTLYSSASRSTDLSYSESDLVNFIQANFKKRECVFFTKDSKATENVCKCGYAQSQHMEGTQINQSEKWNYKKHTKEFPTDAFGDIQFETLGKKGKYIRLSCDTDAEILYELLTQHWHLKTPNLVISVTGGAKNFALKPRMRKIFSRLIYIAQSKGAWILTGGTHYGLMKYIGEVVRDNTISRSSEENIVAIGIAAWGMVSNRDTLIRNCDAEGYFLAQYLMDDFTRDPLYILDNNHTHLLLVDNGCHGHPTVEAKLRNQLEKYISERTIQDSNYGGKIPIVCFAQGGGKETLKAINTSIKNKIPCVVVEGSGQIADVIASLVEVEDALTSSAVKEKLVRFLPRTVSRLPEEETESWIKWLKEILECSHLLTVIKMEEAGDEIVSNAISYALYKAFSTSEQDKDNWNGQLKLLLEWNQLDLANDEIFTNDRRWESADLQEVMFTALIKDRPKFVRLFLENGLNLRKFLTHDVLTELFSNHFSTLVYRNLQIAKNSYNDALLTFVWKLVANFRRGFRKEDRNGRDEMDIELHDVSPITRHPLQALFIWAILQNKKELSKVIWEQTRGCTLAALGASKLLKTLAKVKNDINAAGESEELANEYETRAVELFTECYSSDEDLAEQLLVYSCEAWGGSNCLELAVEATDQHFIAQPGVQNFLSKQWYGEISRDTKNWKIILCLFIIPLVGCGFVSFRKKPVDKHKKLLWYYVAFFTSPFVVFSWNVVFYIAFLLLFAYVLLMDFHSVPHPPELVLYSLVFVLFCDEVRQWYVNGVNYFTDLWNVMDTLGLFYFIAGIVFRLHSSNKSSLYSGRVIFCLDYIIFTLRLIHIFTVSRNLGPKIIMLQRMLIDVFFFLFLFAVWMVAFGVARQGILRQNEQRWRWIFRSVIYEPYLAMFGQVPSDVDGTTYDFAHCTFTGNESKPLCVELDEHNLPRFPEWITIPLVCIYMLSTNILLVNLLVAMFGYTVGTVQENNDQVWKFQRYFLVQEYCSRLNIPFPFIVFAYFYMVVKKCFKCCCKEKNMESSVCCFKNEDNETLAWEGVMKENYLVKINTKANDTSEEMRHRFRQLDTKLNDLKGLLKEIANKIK", "test": "Antagonist activity at TRPM8 (unknown origin) desensitization in presence of icilin"}, "[3]": {"target": "T2, Transient receptor potential cation channel subfamily V member 3 (Homo sapiens, UniProt Q8NET8)", "T2 sequence (Q8NET8 whole entry)": "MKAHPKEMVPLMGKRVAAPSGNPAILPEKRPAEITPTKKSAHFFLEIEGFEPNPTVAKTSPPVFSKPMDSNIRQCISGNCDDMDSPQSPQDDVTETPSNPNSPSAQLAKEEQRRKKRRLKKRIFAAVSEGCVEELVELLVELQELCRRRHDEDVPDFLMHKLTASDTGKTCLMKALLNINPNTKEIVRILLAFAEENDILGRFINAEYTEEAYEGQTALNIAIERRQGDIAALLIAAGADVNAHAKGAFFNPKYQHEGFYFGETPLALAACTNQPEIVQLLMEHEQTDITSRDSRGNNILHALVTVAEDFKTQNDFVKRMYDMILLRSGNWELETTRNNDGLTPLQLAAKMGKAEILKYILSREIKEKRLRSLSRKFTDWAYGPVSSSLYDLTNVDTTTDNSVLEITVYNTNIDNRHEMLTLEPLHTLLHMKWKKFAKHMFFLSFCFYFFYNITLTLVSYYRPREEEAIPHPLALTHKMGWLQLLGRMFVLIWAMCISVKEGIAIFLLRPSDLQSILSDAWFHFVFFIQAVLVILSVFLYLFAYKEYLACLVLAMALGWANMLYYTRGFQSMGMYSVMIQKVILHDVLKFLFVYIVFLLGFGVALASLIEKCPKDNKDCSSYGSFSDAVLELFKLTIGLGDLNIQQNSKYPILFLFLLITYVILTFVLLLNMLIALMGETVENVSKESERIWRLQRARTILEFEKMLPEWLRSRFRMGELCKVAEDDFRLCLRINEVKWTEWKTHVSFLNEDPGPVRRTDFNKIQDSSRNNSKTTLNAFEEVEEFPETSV", "test": "Agonist activity at ionomycin-stimulated TRPV3 (unknown origin) channel desensitization in presence of carvacrol"}, "Cytochrome P450 2C19 [4]": {"target": "T3, Cytochrome P450 2C19 (Homo sapiens, UniProt P33261)", "T3 sequence (P33261 whole entry)": "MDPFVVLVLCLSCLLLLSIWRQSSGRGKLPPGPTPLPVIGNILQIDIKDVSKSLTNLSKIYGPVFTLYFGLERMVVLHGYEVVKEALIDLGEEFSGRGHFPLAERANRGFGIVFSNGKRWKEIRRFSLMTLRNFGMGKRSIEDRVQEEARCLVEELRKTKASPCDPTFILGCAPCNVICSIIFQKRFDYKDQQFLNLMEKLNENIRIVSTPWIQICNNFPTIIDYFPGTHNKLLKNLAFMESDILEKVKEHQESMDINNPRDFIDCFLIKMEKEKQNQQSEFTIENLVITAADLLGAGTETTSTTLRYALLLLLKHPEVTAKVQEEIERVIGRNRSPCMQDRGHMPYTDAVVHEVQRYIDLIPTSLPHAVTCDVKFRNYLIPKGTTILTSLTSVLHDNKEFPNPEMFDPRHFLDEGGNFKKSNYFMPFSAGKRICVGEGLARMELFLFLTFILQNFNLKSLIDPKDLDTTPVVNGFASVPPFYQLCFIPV", "test": "Mixed inhibition of CYP2C19 (unknown origin)", "type": "ADME"}, "[5]": {"target": "T1, Transient receptor potential cation channel subfamily V member 4", "test": "Agonist activity at ionomycin-stimulated TRPV4 (unknown origin) activation assessed as efficacy relative to control"}, "[6]": {"target": "T4, Transient receptor potential cation channel subfamily V member 1 (Homo sapiens, UniProt Q8NER1)", "T4 sequence (Q8NER1 whole entry)": "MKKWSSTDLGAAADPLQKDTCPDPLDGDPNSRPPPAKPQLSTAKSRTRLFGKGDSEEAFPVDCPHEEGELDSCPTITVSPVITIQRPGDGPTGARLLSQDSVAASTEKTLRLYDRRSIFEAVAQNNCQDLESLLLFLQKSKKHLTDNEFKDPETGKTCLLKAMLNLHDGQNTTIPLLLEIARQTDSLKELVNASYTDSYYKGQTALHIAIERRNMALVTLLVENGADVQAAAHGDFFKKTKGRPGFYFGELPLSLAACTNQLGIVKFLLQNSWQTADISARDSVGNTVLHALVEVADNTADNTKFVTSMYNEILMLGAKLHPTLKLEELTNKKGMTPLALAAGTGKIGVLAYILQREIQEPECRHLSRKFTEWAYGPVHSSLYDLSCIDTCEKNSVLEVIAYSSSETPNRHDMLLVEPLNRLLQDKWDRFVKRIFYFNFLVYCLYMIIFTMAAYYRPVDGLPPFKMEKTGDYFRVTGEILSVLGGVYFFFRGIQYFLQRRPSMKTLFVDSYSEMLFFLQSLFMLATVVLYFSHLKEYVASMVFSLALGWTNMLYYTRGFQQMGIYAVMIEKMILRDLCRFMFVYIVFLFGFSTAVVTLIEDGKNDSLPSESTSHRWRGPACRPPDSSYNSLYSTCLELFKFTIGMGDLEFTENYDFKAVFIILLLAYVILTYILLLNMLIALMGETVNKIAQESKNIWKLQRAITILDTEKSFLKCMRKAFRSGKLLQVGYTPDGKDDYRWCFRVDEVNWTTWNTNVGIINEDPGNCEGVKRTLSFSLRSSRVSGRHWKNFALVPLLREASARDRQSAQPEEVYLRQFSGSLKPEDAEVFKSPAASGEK", "test": "Agonist activity at ionomycin-stimulated TRPV1 (unknown origin) activation"}, "[7]": {"target": "T5, G-protein coupled receptor 55 (Homo sapiens, UniProt Q9Y2T6)", "T5 sequence (Q9Y2T6 whole entry)": "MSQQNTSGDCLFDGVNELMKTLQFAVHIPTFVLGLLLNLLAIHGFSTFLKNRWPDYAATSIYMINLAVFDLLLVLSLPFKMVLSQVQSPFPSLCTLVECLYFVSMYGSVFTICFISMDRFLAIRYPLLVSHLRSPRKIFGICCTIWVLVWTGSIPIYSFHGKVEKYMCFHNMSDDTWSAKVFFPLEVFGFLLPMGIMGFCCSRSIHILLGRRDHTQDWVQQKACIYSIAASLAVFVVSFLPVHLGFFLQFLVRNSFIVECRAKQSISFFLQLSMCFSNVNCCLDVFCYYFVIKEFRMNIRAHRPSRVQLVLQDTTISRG", "test": "Binding affinity to human GPR55 expressed in HEK293 cells assessed as LPI-stimulated ERK1/2 phosphorylation", "type": "cell-based"}, "Cytochrome P450 2C19 [8]": {"target": "T3, Cytochrome P450 2C19", "test": "Mixed inhibition of CYP2C19 (unknown origin) by measuring inhibition constant", "type": "ADME"}, "[9]": {"target": "T6, Transient receptor potential cation channel subfamily V member 2 (Homo sapiens, UniProt Q9Y5S1)", "T6 sequence (Q9Y5S1 whole entry)": "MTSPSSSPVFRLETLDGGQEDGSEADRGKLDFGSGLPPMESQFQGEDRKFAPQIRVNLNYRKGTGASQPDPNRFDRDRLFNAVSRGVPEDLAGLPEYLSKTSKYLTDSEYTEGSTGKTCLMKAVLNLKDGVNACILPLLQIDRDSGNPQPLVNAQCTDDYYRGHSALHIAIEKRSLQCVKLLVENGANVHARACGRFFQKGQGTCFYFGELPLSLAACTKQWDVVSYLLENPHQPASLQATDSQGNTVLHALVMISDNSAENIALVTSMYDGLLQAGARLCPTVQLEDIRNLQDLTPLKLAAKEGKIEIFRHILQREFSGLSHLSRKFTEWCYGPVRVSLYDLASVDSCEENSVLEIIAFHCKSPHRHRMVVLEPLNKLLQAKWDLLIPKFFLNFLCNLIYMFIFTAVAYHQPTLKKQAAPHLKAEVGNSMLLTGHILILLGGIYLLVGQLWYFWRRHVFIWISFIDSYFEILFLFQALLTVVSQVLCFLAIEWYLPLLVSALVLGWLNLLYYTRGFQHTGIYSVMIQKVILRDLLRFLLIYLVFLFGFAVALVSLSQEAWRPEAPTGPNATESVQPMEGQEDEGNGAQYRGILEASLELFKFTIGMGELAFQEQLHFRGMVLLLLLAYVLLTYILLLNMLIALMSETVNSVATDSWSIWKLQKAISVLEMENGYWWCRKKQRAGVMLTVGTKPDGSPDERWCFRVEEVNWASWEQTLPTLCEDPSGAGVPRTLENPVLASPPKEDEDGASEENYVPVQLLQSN", "test": "Agonist activity at ionomycin-stimulated TRPV2 (unknown origin) channel desensitization in presence of lysophosphatidylcholine"}, "[10]": {"target": "T4, Transient receptor potential cation channel subfamily V member 1", "test": "Agonist activity at ionomycin-stimulated TRPV1 (unknown origin) activation assessed as efficacy relative to control"}, "[11]": {"target": "T5, G-protein coupled receptor 55", "test": "Binding affinity to human GPR55 expressed in HEK293 cells assessed as LPI-stimulated ERK1/2 phosphorylation by measuring efficacy relative to control", "type": "cell-based"}, "Cytochrome P450 1A1": {"target": "Cytochrome P450 1A1 (Homo sapiens, UniProt P04798)", "sequence (P04798 whole entry)": "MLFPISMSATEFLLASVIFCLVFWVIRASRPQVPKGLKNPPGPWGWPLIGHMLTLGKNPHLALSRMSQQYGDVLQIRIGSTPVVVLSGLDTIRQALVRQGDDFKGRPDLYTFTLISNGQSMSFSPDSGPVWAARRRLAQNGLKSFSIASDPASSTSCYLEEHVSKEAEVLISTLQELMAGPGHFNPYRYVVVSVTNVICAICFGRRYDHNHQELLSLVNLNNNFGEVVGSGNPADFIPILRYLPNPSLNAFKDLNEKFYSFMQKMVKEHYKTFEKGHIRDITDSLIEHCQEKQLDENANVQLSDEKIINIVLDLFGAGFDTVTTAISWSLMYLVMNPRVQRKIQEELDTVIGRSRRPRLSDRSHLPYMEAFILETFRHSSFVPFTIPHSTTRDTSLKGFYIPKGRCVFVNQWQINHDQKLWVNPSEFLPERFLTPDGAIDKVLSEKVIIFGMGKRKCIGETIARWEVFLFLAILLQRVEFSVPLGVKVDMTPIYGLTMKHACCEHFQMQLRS", "test": "Inhibition of human recombinant CYP1A1 preincubated with NADPH for 20 mins and measured after 30 min by Lineweaver-burk plots analysis", "type": "ADME"}, "[12]": {"target": "G-protein coupled receptor 6 (Homo sapiens, UniProt P46095)", "sequence (P46095 whole entry)": "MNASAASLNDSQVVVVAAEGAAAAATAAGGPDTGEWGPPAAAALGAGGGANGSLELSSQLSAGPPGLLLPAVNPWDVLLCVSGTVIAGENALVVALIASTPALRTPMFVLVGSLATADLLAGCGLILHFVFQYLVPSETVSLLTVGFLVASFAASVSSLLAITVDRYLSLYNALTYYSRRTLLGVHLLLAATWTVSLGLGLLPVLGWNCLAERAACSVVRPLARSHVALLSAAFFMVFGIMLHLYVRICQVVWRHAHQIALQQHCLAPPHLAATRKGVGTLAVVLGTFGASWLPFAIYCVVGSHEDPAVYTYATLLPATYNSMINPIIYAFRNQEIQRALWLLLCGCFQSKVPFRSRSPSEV", "test": "Binding affinity to human GPR6 expressed in HEK293 cells assessed as reduction in cAMP level incubated for 1 hr by HTRF assay", "type": "cell-based"}, "Cytochrome P450 2D6": {"target": "Cytochrome P450 2D6 (Homo sapiens, UniProt P10635)", "sequence (P10635 whole entry)": "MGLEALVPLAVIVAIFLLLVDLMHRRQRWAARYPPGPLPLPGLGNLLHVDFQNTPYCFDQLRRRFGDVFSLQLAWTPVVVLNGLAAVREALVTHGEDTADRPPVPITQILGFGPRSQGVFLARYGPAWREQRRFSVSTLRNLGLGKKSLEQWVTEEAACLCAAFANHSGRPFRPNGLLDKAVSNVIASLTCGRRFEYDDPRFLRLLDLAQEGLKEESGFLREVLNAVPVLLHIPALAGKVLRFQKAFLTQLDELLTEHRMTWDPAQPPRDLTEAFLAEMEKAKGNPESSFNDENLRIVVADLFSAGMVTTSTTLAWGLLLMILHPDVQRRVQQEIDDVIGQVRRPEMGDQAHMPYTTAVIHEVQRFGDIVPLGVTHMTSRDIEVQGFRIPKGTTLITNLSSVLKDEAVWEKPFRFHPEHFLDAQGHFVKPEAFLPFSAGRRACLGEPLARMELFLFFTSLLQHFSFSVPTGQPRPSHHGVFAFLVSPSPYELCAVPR", "test": "Inhibition of CYP2D6 in human liver microsomes in presence of NADPH-generating system incubated for 20 mins", "type": "ADME, Microsome"}},
  "data": [
    {"smiles": "C=C(C)[C@@H]1CCC(C)=C[C@H]1c1c(O)cc(CCC)cc1O", "note": "[CANNABIDIVARIN]", "values": [
      {"measurement": "EC50", "setting": "[1]", "result": 900, "unit": "nM"},
      {"measurement": "IC50", "setting": "[2]", "result": 900, "unit": "nM"},
      {"measurement": "IC50", "setting": "[3]", "result": 25000, "unit": "nM"},
      {"measurement": "IC50", "setting": "Cytochrome P450 2C19 [4]", "result": 3700, "unit": "nM"},
      {"measurement": "Efficacy", "setting": "[5]", "result": 30, "unit": "%"},
      {"measurement": "EC50", "setting": "[6]", "result": 3600, "unit": "nM"},
      {"measurement": "EC50", "setting": "[7]", "result": 400, "unit": "nM"},
      {"measurement": "Ki", "setting": "Cytochrome P450 2C19 [8]", "result": 1400, "unit": "nM"},
      {"measurement": "IC50", "setting": "[9]", "result": 31000, "unit": "nM"},
      {"measurement": "Efficacy", "setting": "[10]", "result": 21, "unit": "%"},
      {"measurement": "Efficacy", "setting": "[11]", "result": 49, "unit": "%"},
      {"measurement": "Ki", "setting": "Cytochrome P450 1A1", "result": 1600, "unit": "nM"},
      {"measurement": "EC50", "setting": "[12]", "result": 2400, "unit": "nM"},
      {"measurement": "IC50", "setting": "Cytochrome P450 2D6", "result": 10200, "unit": "nM"}
    ]}
  ]
}
